Source: patent US10920265B2, “Compounds and methods for detection of enzymes that remove methyl succinyl groups from epsilon-amino lysine moieties” (Enzo Life Sciences, Inc., priority 2011, dated 2021)
*: point of attachment. AMC = Cc1cc(=O)oc2cc(N*)ccc12

Legend:
Assay in all cases: HDAC activity with fluorogenic lysyl substrates
Assay type in all cases: biochemical
Conditions in all cases: 50 μM substrate
[1] = target: T1, HDAC2 (Homo sapiens, UniProt Q92769)
T1 construct: purchased ENZO Life Sciences BML-SE500
T1 sequence (Q92769 whole entry): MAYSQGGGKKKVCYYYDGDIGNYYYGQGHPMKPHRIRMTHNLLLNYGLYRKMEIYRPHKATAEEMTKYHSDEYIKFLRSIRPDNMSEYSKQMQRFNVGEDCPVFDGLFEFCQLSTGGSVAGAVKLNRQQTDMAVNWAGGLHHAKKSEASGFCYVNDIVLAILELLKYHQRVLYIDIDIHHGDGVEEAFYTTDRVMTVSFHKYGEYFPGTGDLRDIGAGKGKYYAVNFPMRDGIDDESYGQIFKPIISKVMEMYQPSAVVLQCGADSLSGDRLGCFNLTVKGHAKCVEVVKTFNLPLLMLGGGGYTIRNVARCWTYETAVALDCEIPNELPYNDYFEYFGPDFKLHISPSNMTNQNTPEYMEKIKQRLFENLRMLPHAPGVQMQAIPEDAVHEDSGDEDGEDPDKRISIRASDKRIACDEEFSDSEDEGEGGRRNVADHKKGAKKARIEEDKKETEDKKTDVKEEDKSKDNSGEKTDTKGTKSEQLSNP
In short: (§1)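 Each recombinant human enzyme or extract is incubated at 37 °C with an acetylated, succinylated or trifluoroacetylated lysyl-AMC substrate. Trypsin developer is then added. AMC fluorescence follows, per the SIRT1 fluorometric kit protocol.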

[2] = target: T2, HDAC7 (Homo sapiens, UniProt Q8WUI4)
T2 construct: made in house; host or cells: E. coli
T2 sequence (Q8WUI4 483-903): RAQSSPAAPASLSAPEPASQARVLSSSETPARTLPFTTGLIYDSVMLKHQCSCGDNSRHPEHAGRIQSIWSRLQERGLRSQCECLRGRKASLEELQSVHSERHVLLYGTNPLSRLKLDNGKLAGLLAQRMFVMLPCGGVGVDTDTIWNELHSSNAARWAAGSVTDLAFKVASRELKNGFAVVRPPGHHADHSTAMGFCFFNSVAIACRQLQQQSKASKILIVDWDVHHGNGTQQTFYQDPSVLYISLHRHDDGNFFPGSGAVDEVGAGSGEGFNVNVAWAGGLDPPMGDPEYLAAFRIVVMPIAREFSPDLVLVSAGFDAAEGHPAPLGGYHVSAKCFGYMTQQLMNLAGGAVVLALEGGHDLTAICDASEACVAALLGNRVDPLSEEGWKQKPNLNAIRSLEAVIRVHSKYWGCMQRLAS
In short: as §1

[3] = target: T3, HDAC8 (Homo sapiens, UniProt Q9BY41)
T3 construct: purchased ENZO Life Sciences BML-SE145
T3 sequence (Q9BY41 1-377): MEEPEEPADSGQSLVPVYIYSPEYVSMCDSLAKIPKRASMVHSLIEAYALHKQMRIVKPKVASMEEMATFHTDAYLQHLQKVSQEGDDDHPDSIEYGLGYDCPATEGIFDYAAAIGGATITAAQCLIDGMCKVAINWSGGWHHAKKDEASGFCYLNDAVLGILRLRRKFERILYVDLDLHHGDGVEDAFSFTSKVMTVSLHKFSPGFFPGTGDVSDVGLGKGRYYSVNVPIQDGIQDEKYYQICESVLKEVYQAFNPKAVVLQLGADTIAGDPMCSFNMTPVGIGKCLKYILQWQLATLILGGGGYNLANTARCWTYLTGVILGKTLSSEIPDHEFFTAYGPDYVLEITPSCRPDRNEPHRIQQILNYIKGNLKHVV
In short: as §1

[4] = target: T4, HDAC3/NCOR1 Complex (Homo sapiens, UniProt O15379)
T4 construct: purchased ENZO Life Sciences BML-SE515
T4 sequence (O15379 whole entry): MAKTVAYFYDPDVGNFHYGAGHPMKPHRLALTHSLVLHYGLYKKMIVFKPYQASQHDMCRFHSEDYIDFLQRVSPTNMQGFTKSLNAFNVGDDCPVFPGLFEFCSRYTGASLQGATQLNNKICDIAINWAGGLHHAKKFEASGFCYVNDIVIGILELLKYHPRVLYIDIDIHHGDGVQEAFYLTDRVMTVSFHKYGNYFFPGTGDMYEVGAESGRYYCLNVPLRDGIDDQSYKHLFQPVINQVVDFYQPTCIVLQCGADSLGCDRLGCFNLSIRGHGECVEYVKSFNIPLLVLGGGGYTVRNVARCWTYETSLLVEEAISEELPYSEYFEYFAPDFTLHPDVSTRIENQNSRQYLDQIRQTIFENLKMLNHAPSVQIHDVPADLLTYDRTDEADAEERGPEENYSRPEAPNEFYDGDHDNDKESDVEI
T4 sequence (O75376 395-489 partner limits assumed): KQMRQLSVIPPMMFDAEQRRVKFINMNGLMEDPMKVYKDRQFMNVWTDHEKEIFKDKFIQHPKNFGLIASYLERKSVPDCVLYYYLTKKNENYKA
In short: as §1

## CC(=O)NCCCCC(NC(C)=O)C(=O)Nc1ccc2c(C)cc(=O)oc2c1 (centres unmarked) [Ac-Lys(Ac.)-AMC, Ac-Lys(ε-acetyl)-AMC, reference compound]
[1]
  Activity: 554 pmol/min/µg
[2]
  Activity (pmol/min/μg): Undetectable
[3]
  Activity: 0.091 pmol/min/µg
[4]
  Activity: 668 pmol/min/µg

## CC(=O)N[C@@H](CCCCNC(=O)CCC(=O)O)C(=O)Nc1ccc2c(C)cc(=O)oc2c1 [Compound 1, N—(N^α-acetyl-L-Lysine(N^ε-succinyl))-AMC]
[1]
  Activity: 0.28 pmol/min/µg
[2]
  Activity (pmol/min/μg): Undetectable
[3]
  Activity (pmol/min/μg): Undetectable
[4]
  Activity: 0.40 pmol/min/µg

## CCCCCCCCCCCCCC(=O)NCCCC[C@H](NC(C)=O)C(=O)Nc1ccc2c(C)cc(=O)oc2c1 [Compound 4, N—(N^α-acetyl-L-Lysine(N^ε-myristoyl))-AMC]
[1]
  Activity: 83.05 pmol/min/µg
[2]
  Activity (pmol/min/μg): Undetectable
[3]
  Activity (pmol/min/μg): Undetectable
[4]
  Activity: 79.023 pmol/min/µg

## COC(=O)CCC(=O)NCCCC[C@H](NC(C)=O)C(=O)Nc1ccc2c(C)cc(=O)oc2c1 [Compound 5, N—(N^α-acetyl-L-Lysine(N^ε-methyl succinyl))-AMC]
[1]
  Activity: 31.330 pmol/min/µg
[2]
  Activity (pmol/min/μg): Undetectable
[3]
  Activity: 0.003 pmol/min/µg
[4]
  Activity: 53.750 pmol/min/µg

## Ac-Arg-His-Lys-Lys(ε-acetyl)-AMC (Ac-RHKK(Ac)-{AMC}; SMILES CC(=O)NCCCC[C@H](NC(=O)[C@H](CCCCN)NC(=O)[C@H](Cc1c[nH]cn1)NC(=O)[C@H](CCCNC(=N)N)NC(C)=O)C(=O)Nc1ccc2c(C)cc(=O)oc2c1) [Ac-RHKK(Ac)-AMC, p53 peptide fluorogenic deacetylase substrate, Cat. # BML-KI177, reference compound]
[4]
  Activity (pmol/min/μg): Ac-RHKK(Ac)-AMC/687 pmol/min/μg
